Literature values as cited in patent publication US8221990B2, “Screening GPR12 receptor for substances having Nesfatin-1-like action, or which regulate Nesfatin-1 action” (Teijin Pharma Limited, priority 2007, dated 2012).

Molecular target: T1, GPR12 (Homo sapiens, UniProt P47775)
T1 sequence (P47775 1-334): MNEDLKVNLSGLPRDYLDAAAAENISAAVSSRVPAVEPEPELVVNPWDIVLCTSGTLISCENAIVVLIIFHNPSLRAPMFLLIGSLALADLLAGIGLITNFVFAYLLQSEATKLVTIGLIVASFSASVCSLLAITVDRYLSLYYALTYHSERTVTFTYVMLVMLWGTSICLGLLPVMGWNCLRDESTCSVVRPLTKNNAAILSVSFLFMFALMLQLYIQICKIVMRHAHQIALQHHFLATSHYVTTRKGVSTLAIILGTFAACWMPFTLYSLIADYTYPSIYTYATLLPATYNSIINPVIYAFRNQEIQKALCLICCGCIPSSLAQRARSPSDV
Conditions: cells in which a GPR12 gene is introduced and expressed; cited from earlier work

| SMILES | cytoplasmic calcium ion concentration |
| --- | --- |
| CCCCCCCCCCCCC/C=C/[C@@H](O)[C@@H](N)COP(=O)(O)O [S1P, sphingosine 1-phosphate] | increase in cytoplasmic calcium ion concentration occurs |
| CCCCCCCCCCCCC/C=C/[C@@H](O)[C@@H](N)COP(=O)([O-])OCC[N+](C)(C)C [SPC, sphingosylphosphorylcholine] | increase in cytoplasmic calcium ion concentration occurs |
